Experimental data: US20240228488A1 (TAKEDA PHARMACEUTICAL COMPANY LIMITED, priority 2021, published 2024)

How the values were obtained:
[1] = target: human activated kallikrein enzyme (Homo sapiens, UniProt P03952); assay: Plasma kallikrein inhibition, fluorogenic PFR-AMC substrate, 500 pM activated kallikrein format; type: biochemical; conditions: 500 pM activated kallikrein, 300 uM PFR-AMC, 30 min preincubation, 10 min reaction; read-out: Primary Dose Response Assay: Average EC50
Summary of the method: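 Enzyme at 500 pM preincubated 30 min RT with inhibitors in 20 mM Tris pH 7.5, 1 mM EDTA, 150 mM NaCl, 0.1% PEG-400, 0.1% Triton X-100. Reaction started with 300 uM PFR-AMC, run 10 min RT; fluorescence read at 460 nm emission, 380 nm excitation. EC50 reported in ranges.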

plasma kallikrein = target: T1, plasma kallikrein (Homo sapiens, UniProt P03952); assay: Neat human plasma assay, FXIIa contact pathway-activated, PFR-AMC substrate; type: biochemical; conditions: citrated human plasma 78% final, 10 nM human FXIIa, 100 μM PFR-AMC; read-out: Human Plasma Assay: IC90
T1 construct: from tissue
Summary of the method: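 Citrated human plasma (78% final) with compound, contact-activated by 10 nM human FXIIa in pKal buffer pH 7.5, with 100 μM PFR-AMC. Fluorescence (360/480 nm) followed 5 min at room temperature; rates versus concentration fitted by 4-parameter equation for IC50/IC90.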

T1 sequence (P03952 391-638 limits assumed): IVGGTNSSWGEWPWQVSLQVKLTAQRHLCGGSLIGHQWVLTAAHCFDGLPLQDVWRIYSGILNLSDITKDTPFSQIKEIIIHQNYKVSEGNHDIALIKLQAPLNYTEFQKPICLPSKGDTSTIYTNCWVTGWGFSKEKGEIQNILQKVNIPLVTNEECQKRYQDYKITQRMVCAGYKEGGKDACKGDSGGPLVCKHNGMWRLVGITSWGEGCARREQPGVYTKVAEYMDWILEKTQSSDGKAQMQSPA
T1 sequence (P03952 20-390 partner limits assumed): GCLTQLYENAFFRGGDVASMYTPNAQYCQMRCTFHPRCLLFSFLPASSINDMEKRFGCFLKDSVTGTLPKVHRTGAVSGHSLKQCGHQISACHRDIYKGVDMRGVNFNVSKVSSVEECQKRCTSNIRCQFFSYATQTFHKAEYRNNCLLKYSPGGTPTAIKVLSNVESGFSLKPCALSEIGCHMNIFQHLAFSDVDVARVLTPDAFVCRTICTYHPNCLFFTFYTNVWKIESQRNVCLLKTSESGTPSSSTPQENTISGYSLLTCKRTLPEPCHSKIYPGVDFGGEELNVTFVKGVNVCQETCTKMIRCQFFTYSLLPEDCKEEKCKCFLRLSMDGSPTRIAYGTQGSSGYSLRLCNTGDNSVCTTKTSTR
human activated kallikrein enzyme, sequence (P03952 391-638 limits assumed): as the sequence (P03952 391-638 limits assumed) above
human activated kallikrein enzyme, sequence (P03952 20-390 partner limits assumed): as the sequence (P03952 20-390 partner limits assumed) above

| EC50 [1] [nM] | IC90 (plasma kallikrein) [nM] | Structure (SMILES) |
| --- | --- | --- |
| < 1 | > 48000 | CC(O)c1cc(C2CC2)cn2cc(CNc3ccnc(NC(=O)[C@H]4C[C@@H]4c4cccc(Cl)c4)c3)nc12 (stereo partly drawn) [Example I-236, (1S,2S)-2-(3-chlorophenyl)-N-(4-(((6-cyclopropyl-8-(1-hydroxyethyl)imidazo[1,2-a]pyridin-2-yl)methyl)amino)pyridin-2-yl)cyclopropane-1-carboxamide] |
| < 1 | 1500 to 10000 | O=C(O)CCc1cc(C2CC2)cn2cc(CNc3ccnc(NC(=O)[C@H]4C[C@@H]4c4cccc(Cl)c4)c3)nc12 [Example 290, 3-(2-(((2-((1S,2S)-2-(3-chlorophenyl)cyclopropane-1-carboxamido)pyridin-4-yl)amino)methyl)-6-cyclopropylimidazo[1,2-a]pyridin-8-yl)propanoic acid] |
| < 1 | 400 to 1500 | Cc1ccnc([C@H]2C[C@@H]2C(=O)Nc2cncc(NCc3cn4cc(C5CC5)cc(N5CC(=O)N(C)C5=O)c4n3)n2)n1 (racemic) [Example 526, rac-(1S*,2S*)-N-(6-(((6-cyclopropyl-8-(3-methyl-2,4-dioxoimidazolidin-1-yl)imidazo[1,2-a]pyridin-2-yl)methyl)amino)pyrazin-2-yl)-2-(4-methylpyrimidin-2-yl)cyclopropane-1-carboxamide] |
| < 1 | < 400 | COCc1nc(NC(=O)[C@H]2C[C@@H]2c2nccc(C)n2)cc(N[C@H](C)c2cn3cc(C4CC4)cc(N4CC(=O)N(C)C4=O)c3n2)n1 [Example 355, (1S,2S)-N-(6-(((R)-1-(6-cyclopropyl-8-(3-methyl-2,4-dioxoimidazolidin-1-yl)imidazo[1,2-a]pyridin-2-yl)ethyl)amino)-2-(methoxymethyl)pyrimidin-4-yl)-2-(4-methylpyrimidin-2-yl)cyclopropane-1-carboxamide] |
| < 1 | < 400 | Cc1ccnc([C@H]2C[C@@H]2C(=O)Nc2cc(NCc3cn4cc(C5(F)CC5)cc(N5CC(=O)N(C)C5=O)c4n3)ncn2)n1 [Example 374, (1S,2S)-N-(6-(((6-(1-fluorocyclopropyl)-8-(3-methyl-2,4-dioxoimidazolidin-1-yl)imidazo[1,2-a]pyridin-2-yl)methyl)amino)pyrimidin-4-yl)-2-(4-methylpyrimidin-2-yl)cyclopropane-1-carboxamide] |
| 1 to 10 | 10000 to 48000 | O=C(Nc1nsc(NCc2cn3cc(C4CC4)ccc3n2)n1)[C@H]1C[C@@H]1c1cc(Cl)ccn1 (racemic) [Example 614] |
| < 1 | 1500 to 10000 | Cc1ccnc([C@H]2C[C@@H]2C(=O)Nc2cc(NC(C)c3cn4cc(C5CC5)cc(S(C)(=O)=O)c4n3)nc(C)n2)n1 (stereo partly drawn) [Example 363, (1S,2S)-N-(6-((1-(6-cyclopropyl-8-(methylsulfonyl)imidazo[1,2-a]pyridin-2-yl)ethyl)amino)-2-methylpyrimidin-4-yl)-2-(4-methylpyrimidin-2-yl)cyclopropane-1-carboxamide] |
| < 1 | 400 to 1500 | COc1nc(NC(=O)[C@H]2C[C@@H]2c2nccc(C)n2)cc(N[C@H](C)c2cn3cc(C4CC4)cc(N4CC(=O)N(C)C4=O)c3n2)n1 [Example 407, (1S,2S)-N-(6-(((R)-1-(6-cyclopropyl-8-(3-methyl-2,4-dioxoimidazolidin-1-yl)imidazo[1,2-a]pyridin-2-yl)ethyl)amino)-2-methoxypyrimidin-4-yl)-2-(4-methylpyrimidin-2-yl)cyclopropane-1-carboxamide] |
| < 1 | 1500 to 10000 | CN1CCN(c2cc(C3CC3)cn3cc(CNc4cc(NC(=O)[C@H]5C[C@@H]5c5cccc(Cl)c5)ncn4)nc23)C1=O [Example I-157, (1S,2S)-2-(3-chlorophenyl)-N-(6-(((6-cyclopropyl-8-(3-methyl-2-oxoimidazolidin-1-yl)imidazo[1,2-a]pyridin-2-yl)methyl)amino)pyrimidin-4-yl)cyclopropane-1-carboxamide] |
| < 1 | < 400 | CN1CCN(c2cc(C3CC3)cn3cc(CNc4ccnc(NC(=O)[C@H]5C[C@@H]5c5cccc(Cl)c5)c4)nc23)C(=O)C1 [Example 127, (1S,2S)-2-(3-chlorophenyl)-N-(4-(((6-cyclopropyl-8-(4-methyl-2-oxopiperazin-1-yl)imidazo[1,2-a]pyridin-2-yl)methyl)amino)pyridin-2-yl)cyclopropane-1-carboxamide] |
| < 1 | 400 to 1500 | O=C(Nc1cc(NCc2cn3cc(C4CC4)cc(N4CCN(C5COC5)CC4)c3n2)ccn1)[C@H]1C[C@@H]1c1cccc(Cl)c1 [Example I-233, (1S,2S)-2-(3-chlorophenyl)-N-(4-(((6-cyclopropyl-8-(4-(oxetan-3-yl)piperazin-1-yl)imidazo[1,2-a]pyridin-2-yl)methyl)amino)pyridin-2-yl)cyclopropane-1-carboxamide] |
| 1 to 10 | 10000 to 48000 | O=C(Nc1cc(N(CCO)Cc2cn3cc(C4CC4)ccc3n2)ccn1)[C@H]1C[C@@H]1c1cccc(Cl)c1 [Example 604, (1S,2S)-2-(3-chlorophenyl)-N-(4-(((6-cyclopropylimidazo[1,2-a]pyridin-2-yl)methyl)(2-hydroxyethyl)amino)pyridin-2-yl)cyclopropane-1-carboxamide] |
| < 1 | < 400 | Cc1ccnc([C@H]2C[C@@H]2C(=O)Nc2cc(NCc3cn4cc(C5CC5)cc(N5CCOC5=O)c4n3)ncn2)n1 (racemic) [Example 390, rac-(1S*,2S*)-N-(6-(((6-cyclopropyl-8-(2-oxooxazolidin-3-yl)imidazo[1,2-a]pyridin-2-yl)methyl)amino)pyrimidin-4-yl)-2-(4-methylpyrimidin-2-yl)cyclopropane-1-carboxamide] |
| < 1 | 400 to 1500 | Cc1ccnc([C@H]2C[C@@H]2C(=O)Nc2cc(N[C@H](C)c3cn4cc(C5CC5)cc(N5CC(=O)N(C)C5=O)c4n3)ncn2)n1 (single isomer, unassigned) [Example 451] |
| < 1 | < 400 | CNCc1cc(C2CC2)cn2cc(CNc3ccnc(NC(=O)[C@H]4C[C@@H]4c4cccc(Cl)c4)c3)nc12 [Example 595, (1S,2S)-2-(3-chlorophenyl)-N-(4-(((6-cyclopropyl-8-((methylamino)methyl)imidazo[1,2-a]pyridin-2-yl)methyl)amino)pyridin-2-yl)cyclopropane-1-carboxamide] |
| 1 to 10 | 1500 to 10000 | O=C(Nc1ncnc(NCc2cn3cc(C4CC4)ccc3n2)n1)[C@H]1C[C@@H]1c1cccc(Cl)c1 (racemic) [Example 344, (rac-(1S*,2S*))-2-(3-chlorophenyl)-N-(4-(((6-cyclopropylimidazo[1,2-a]pyridin-2-yl)methyl)amino)-1,3,5-triazin-2-yl)cyclopropane-1-carboxamide] |
| < 1 | 1500 to 10000 | O=C(Nc1cc(NCc2cn3cc(C4CC4)cc(CCCO)c3n2)ccn1)[C@H]1C[C@@H]1c1cccc(Cl)c1 [Example 291, (1S,2S)-2-(3-chlorophenyl)-N-(4-(((6-cyclopropyl-8-(3-hydroxypropyl)imidazo[1,2-a]pyridin-2-yl)methyl)amino)pyridin-2-yl)cyclopropane-1-carboxamide] |
| < 1 | < 400 | Cc1ccnc([C@H]2C[C@@H]2C(=O)Nc2cc(N[C@H](C)c3cn4cc(C5CC5)cc(N5CC(=O)N(C)C5=O)c4n3)nc(C)n2)n1 (single isomer, unassigned) [Example 456] |
